The values below come from paper PMC8004929, “Whole-Body Pharmacokinetics and Physiologically Based Pharmacokinetic Model for Monomethyl Auristatin E (MMAE)” (Journal of Clinical Medicine, 2021).

The conditions of series [1]: cited from earlier work. An excerpt:
The PBPK model included 16 tissues and a tumor compartment, and all of them were connected via blood flow and arranged anatomically. The tissue compartments included blood, lung, heart, kidney, muscle, skin, liver, brain, adipose, thymus, bone, small intestine, large intestine, spleen, pancreas, and other (i.e., carcass). All the other tissues, except those mentioned, were lumped into the ‘other’ compartment. The arterial blood to each organ was delivered by the efferent blood supplied from the lung, which perfused to each organ and t ... || It is reported that the elimination (metabolism and excretion) of MMAE is mainly through CYP3A4-mediated metabolism, biliary/fecal excretion, or urinary excretion. About 80% of MMAE excretes via feces, and only 6% excretes via urine. Therefore, we assumed that MMAE was eliminated only via metabolism and biliary/fecal excretion from the liver. […] For the derivation of CLint based on in vitro data, the CLint, vitro were estimated using human hepatocyte (3 µL/min/10^6 cells) and human ...

The conditions of series [2]: cited from earlier work. The source says:
The PK profile of MMAE in plasma dropped rapidly, while concentrations in tissues were retained for a prolonged period of time. This could be because of the binding of MMAE to its intracellular target, tubulin. […] Since plasma and tissue concentration profiles were not parallel, plasma exposure ...
The source holds these as a separate data set.

The nature of series [3]: Derivation of in vivo CLint (in vitro-in vivo extrapolation; NCA with well-stirred model). The conditions noted are these: mice, 0.1 mg/kg i.v.

Molecules are shown by their SMILES. Square brackets hold non-standard residues; d marks the D form. Peptide text beside a SMILES is read from it. * marks the point of attachment. Dolaproine = CO[C@@H]([C@@H]1CCCN1)[C@@H](C)C(=O)O; Dil = CC[C@H](C)[C@H](NC)[C@@H](CC(=O)O)OC; X1 = C[C@@H](N*)[C@@H](O)c1ccccc1; NMeV = CN[C@H](C(=O)O)C(C)C

In the case of `CC[C@H](C)[C@@H]([C@@H](CC(=O)N1CCC[C@H]1[C@H](OC)[C@@H](C)C(=O)N[C@H](C)[C@@H](O)c1ccccc1)OC)N(C)C(=O)[C@@H](NC(=O)[C@@H](NC)C(C)C)C(C)C` [MMAE, Monomethyl auristatin E] (H-[NMeV]V[Dil][Dolaproine]-X1), in series [1], the excretion via feces result is “About 80%”, the excretion via urine is reported as 6% and the renal excretion is under 10%. For the same compound, in series [2], the “half-life of MMAE, reported value” is reported as 5.7 h. For the same compound, the “CLint derived from NCA analysis of in vivo PK data” value in series [3] is 150 mL/h.
